Experimental data from patent US20140336073A1, “METHOD OF DETERMINATION OF CANCER CELL DRUG SENSITIVITY TOWARDS AURORA KINASE INHIBITORS” (PALACKY UNIVERSITY, OLOMOUC, priority 2011, published 2014).
Read-outs that look alike come from different tables or passages of the source.

How the values were obtained:
[1] = test system: HCT116 p53−/−: CYC116 resistant clones; assay: MTT based cell proliferation assay of ABT-263; details: polyploid clones, 96 hrs MTT
Protocol: (§1) The MTT assay was performed in three independent replicates (n=3).
(§2) This method is performed based on the principle that viable cells can reduce yellow colored MTT (3-(4,5-dimethylthiazol-2-yl)-2,5-diphenyltetrazolium bromide) salt to purple colored formazan. The intensity of the purple colored produced is directly proportional to number of viable cells, which can be measured […]. To determine the half inhibitory concentration (IC50) of any medicinal agent MTT assay is very reliable and well accepted. […] The assay was carried out in 2 technical replicates for each concentration and in 3 biological replicates. Alongside blank and controls were included and incubated for 96 hrs. At the end of the assay time point 10 μl of MTT/well (Sigma) (10 mg/ml) was added and incubated until the appearance of violet formazan crystals. The formazan was dissolved with 100 μl/well 10% aqueous SDS (pH: 5.5) by incubating the plates at 37° C. overnight. The optical density was measured at 540 nm using the Labsystem IMS reader and the […] values were determined using Chemorezist software.

[2] = test system: p53+/+ ZM447439 resistant clones; assay: MTT based cell proliferation assay of ABT-263; details: diploid p53+/+ ZM447439 resistant clones, 96 hrs MTT
Protocol: as §1, §2

[3] = test system: p53−/− ZM447439 resistant clones; assay: MTT based cell proliferation assay of ABT-263; details: diploid p53−/− ZM447439 resistant clones, 96 hrs MTT
Protocol: as §1, §2

[4] = target: Bcl-w (Homo sapiens, UniProt Q92843); details: cited from earlier work
Chain of Bcl-w (Q92843 whole entry): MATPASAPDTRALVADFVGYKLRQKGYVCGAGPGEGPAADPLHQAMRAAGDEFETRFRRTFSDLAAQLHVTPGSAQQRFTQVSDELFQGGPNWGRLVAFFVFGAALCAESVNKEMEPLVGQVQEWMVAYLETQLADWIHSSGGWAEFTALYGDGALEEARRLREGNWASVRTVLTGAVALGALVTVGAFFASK

[5] = test system: HCT116 p53+/+ parent; assay: cells; details: for IC50: Homo sapiens
Protocol: as §2

[6] = test system: HCT116 p53−/− parent; assay: Cell proliferation (MTT) IC50, cross-resistance profile; assay type: cell-based; details: Homo sapiens, HCT-116
[7] = test system: R1.1 (HCT116 p53+/+ CYC116 resistant clone); assay: as above; assay type: cell-based; details: for IC50: Homo sapiens, HCT-116, clone R1.1; for fold increase of IC50 vs parent: clone R1.1 vs HCT116 p53+/+ parent
Protocol: (§3) Colonies were isolated and bulked up for further studies. […] [1]
as §2

[8] = test system: R1.2 (HCT116 p53+/+ CYC116 resistant clone); assay: as above; assay type: cell-based; details: for IC50: Homo sapiens, HCT-116, clone R1.2; for fold increase of IC50 vs parent: clone R1.2 vs HCT116 p53+/+ parent
Protocol: as §3, §2

[9] = test system: R1.3 (HCT116 p53+/+ CYC116 resistant clone); assay: as above; assay type: cell-based; details: for IC50: Homo sapiens, HCT-116, clone R1.3; for fold increase of IC50 vs parent: clone R1.3 vs HCT116 p53+/+ parent
Protocol: as §3, §2

[10] = test system: R2.1 (HCT116 p53−/− CYC116 resistant clone); assay: as above; assay type: cell-based; details: for IC50: Homo sapiens, HCT-116, clone R2.1; for fold increase of IC50 vs parent: clone R2.1 vs HCT116 p53−/− parent
Protocol: as §3, §2

[11] = test system: R2.2 (HCT116 p53−/− CYC116 resistant clone); assay: as above; assay type: cell-based; details: for IC50: Homo sapiens, HCT-116, clone R2.2; for fold increase of IC50 vs parent: clone R2.2 vs HCT116 p53−/− parent
Protocol: as §3, §2

[12] = test system: R2.3 (HCT116 p53−/− CYC116 resistant clone); assay: as above; assay type: cell-based; details: for IC50: Homo sapiens, HCT-116, clone R2.3; for fold increase of IC50 vs parent: clone R2.3 vs HCT116 p53−/− parent
Protocol: as §3, §2

[13] = test system: R3.1 (HCT116 p53+/+ ZM447439 resistant clone); assay: as above; assay type: cell-based; details: for IC50: Homo sapiens, HCT-116, clone R3.1; for fold increase of IC50 vs parent: clone R3.1 vs HCT116 p53+/+ parent
Protocol: as §3, §2

[14] = test system: R3.2 (HCT116 p53+/+ ZM447439 resistant clone); assay: as above; assay type: cell-based; details: for IC50: Homo sapiens, HCT-116, clone R3.2; for fold increase of IC50 vs parent: clone R3.2 vs HCT116 p53+/+ parent
Protocol: as §3, §2

[15] = test system: R3.3 (HCT116 p53+/+ ZM447439 resistant clone); assay: as above; assay type: cell-based; details: for IC50: Homo sapiens, HCT-116, clone R3.3; for fold increase of IC50 vs parent: clone R3.3 vs HCT116 p53+/+ parent
Protocol: as §3, §2

[16] = test system: R4.1 (HCT116 p53−/− ZM447439 resistant clone); assay: as above; assay type: cell-based; details: for IC50: Homo sapiens, HCT-116, clone R4.1; for fold increase of IC50 vs parent: clone R4.1 vs HCT116 p53−/− parent
Protocol: as §3, §2

[17] = test system: R4.2 (HCT116 p53−/− ZM447439 resistant clone); assay: as above; assay type: cell-based; details: for IC50: Homo sapiens, HCT-116, clone R4.2; for fold increase of IC50 vs parent: clone R4.2 vs HCT116 p53−/− parent
Protocol: as §3, §2

[18] = test system: R4.3 (HCT116 p53−/− ZM447439 resistant clone); assay: as above; assay type: cell-based; details: for IC50: Homo sapiens, HCT-116, clone R4.3; for fold increase of IC50 vs parent: clone R4.3 vs HCT116 p53−/− parent
Protocol: as §3, §2

[19] = test system: one HCT116 p53+/+: CYC116 resistant clone; assay: MTT assay of CYC116 with or without Bcl-xL siRNA knockdown; assay type: cell-based; details: Homo sapiens, HCT-116
Protocol: as §2

[20] = test system: primary tumor samples; assay: 96-h MTT cell proliferation assay on primary tumor biopsies; assay type: cell-based; details: Homo sapiens
[21] = test system: CYP1A1; assay: CYP1A1 expression after CYC116 treatment for 48 h; assay type: cell-based; details: HCT116 and HCT116 p53−/− treated with CYC116 for 48 h
From the text: CYP1A1 is involved in the metabolism of polycyclic aromatic hydrocarbons (PAH). In tobacco smokers CYP1A1 transforms PAH into procarcinogens. CYP1A1 expression was reported in pulmonary cancers and also altered expression in many lung tumors (McLemore T. L. et al., Journal of the National Cancer Institute 1990; 82, 1333-39).

[22] = target: VEGFR2 (Homo sapiens, UniProt P35968); details: cited from earlier work
Chain of VEGFR2 (P35968 20-1356): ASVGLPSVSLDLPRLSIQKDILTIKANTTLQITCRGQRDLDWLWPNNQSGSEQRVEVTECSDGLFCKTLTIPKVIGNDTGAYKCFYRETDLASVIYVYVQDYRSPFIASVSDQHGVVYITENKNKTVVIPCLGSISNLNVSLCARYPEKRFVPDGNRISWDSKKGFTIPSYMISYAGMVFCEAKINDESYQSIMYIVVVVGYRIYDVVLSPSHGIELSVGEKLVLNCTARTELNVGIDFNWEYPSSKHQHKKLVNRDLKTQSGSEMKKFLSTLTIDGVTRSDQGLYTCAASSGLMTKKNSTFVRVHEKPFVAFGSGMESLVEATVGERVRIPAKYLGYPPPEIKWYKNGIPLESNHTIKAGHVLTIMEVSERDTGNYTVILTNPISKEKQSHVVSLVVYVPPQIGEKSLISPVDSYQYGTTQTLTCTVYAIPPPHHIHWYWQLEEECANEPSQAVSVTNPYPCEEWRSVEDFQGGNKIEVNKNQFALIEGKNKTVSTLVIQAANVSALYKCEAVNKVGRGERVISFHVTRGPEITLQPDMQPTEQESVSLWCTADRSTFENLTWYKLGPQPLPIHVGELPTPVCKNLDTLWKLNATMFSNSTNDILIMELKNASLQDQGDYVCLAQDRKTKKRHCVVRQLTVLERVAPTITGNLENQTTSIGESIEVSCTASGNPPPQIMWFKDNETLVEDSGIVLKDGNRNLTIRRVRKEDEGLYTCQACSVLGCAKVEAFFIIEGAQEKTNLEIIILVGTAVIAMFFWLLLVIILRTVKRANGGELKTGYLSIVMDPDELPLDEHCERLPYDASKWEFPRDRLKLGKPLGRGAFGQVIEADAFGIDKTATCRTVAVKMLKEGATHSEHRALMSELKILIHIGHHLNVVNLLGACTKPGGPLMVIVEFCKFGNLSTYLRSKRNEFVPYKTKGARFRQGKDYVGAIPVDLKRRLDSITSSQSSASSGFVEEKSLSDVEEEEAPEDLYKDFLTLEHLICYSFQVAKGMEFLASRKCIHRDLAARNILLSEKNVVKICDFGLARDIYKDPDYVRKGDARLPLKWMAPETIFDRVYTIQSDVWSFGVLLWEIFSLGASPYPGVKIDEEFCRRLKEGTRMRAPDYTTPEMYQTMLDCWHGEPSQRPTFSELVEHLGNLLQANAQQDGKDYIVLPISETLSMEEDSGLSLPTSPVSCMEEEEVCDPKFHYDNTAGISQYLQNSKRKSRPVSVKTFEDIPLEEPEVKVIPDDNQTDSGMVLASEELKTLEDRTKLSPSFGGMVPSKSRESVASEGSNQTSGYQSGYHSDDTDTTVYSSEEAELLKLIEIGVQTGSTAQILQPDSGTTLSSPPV

[23] = target: Flt-3 (Homo sapiens, UniProt P36888); details: cited from earlier work
Chain of Flt-3 (P36888 27-993): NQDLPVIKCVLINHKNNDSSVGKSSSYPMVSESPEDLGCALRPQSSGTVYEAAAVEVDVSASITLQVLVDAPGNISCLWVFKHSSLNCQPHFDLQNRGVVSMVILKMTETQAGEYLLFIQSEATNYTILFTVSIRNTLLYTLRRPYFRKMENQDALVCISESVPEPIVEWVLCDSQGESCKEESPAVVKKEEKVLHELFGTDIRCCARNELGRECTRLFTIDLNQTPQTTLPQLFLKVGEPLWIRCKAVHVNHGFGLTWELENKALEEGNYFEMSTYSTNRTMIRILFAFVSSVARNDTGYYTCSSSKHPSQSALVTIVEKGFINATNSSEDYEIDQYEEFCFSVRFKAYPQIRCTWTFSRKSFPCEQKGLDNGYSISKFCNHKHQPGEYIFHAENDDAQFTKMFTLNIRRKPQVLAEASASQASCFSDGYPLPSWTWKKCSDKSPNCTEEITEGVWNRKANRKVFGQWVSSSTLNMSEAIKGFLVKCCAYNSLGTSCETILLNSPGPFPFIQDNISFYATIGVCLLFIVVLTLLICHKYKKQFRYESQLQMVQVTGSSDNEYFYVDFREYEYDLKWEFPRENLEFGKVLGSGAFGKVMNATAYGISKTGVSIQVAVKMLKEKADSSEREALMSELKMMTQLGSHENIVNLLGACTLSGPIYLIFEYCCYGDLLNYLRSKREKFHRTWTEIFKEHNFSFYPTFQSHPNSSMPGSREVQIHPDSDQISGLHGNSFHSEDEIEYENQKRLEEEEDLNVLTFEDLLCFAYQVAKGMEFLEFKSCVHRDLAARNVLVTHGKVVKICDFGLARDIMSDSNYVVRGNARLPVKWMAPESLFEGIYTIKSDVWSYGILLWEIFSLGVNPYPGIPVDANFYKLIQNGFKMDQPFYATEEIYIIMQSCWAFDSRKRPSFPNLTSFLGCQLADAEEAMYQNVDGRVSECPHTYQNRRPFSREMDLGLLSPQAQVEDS

Compound | IC50 ([5]; HCT-116, read-out: mean IC50) [nM] | IC50 [6] [nM] | IC50 [7] [nM] | fold increase of IC50 vs parent [7] [fold] | IC50 [8] [nM] | fold increase of IC50 vs parent [8] [fold] | IC50 [9] [nM] | fold increase of IC50 vs parent [9] [fold] | IC50 [10] [nM] | IC50 [11] [nM] | IC50 [12] [nM] | IC50 [13] [nM] | fold increase of IC50 vs parent [13] [fold] | IC50 [14] [nM] | fold increase of IC50 vs parent [14] [fold] | IC50 [15] [nM] | fold increase of IC50 vs parent [15] [fold] | IC50 [16] [nM] | IC50 [17] [nM] | IC50 [18] [nM] | also measured
CC1(C)CCC(c2ccc(Cl)cc2)=C(CN2CCN(c3ccc(C(=O)NS(=O)(=O)c4ccc(N[C@H](CCN5CCOCC5)CSc5ccccc5)c(S(=O)(=O)C(F)(F)F)c4)cc3)CC2)C1 [ABT-263, (R)4-(4-((4′-chloro-4,4-dimethyl-3,4,5,6-tetrahydro[1,1′-biphenyl]-2-yl)methyl)piperazin-1-yl)-N-((4-((4-morpholino-1-(phenylthio)butan-2-yl)amino)-3-((trifluoromethyl)sulfonyl)phenyl)sulfonyl)benzamide] |  |  |  |  |  |  |  |  |  |  |  |  |  |  |  |  |  |  |  |  | response to ABT-263 compared to parent HCT116 p53−/− cells [1]: significant cross-resistance; response to ABT-263 [2]: resistant; response to ABT-263 [3]: resistant; Ki [4]: < 1 nM
CCN(CCCOc1ccc2c(Nc3cc(CC(=O)Nc4cccc(F)c4)n[nH]3)ncnc2c1)CCOP(=O)(O)O [AZD1152, 2-[ethyl-[3-[4-[[5-[2-(3-fluoroanilino)-2-oxoethyl]-1Hpyrazo[3 yl]amino]quinazolin7-yl]oxypropyl]amino]ethyldihydrogen phosphate] | 10 | > 50000 | 17000 | 1700 | 18000 | 1800 | 11000 | 1100 | > 50000 | > 50000 | > 50000 | 36000 | 3600 | 8000 | 800 | 70 | 7 | > 50000 | > 50000 | > 50000 | 
Cc1nc(N)sc1-c1ccnc(Nc2ccc(N3CCOCC3)cc2)n1 [CYC116, 4-methyl-5-(2-(4-morpholinophenylamino)pyrimidin-4-yl)thiazol-2-amine] |  |  |  |  |  |  |  |  |  |  |  |  |  |  |  |  |  |  |  |  | sensitization towards CYC116 by knockdown of Bcl-xL ([5]; Bcl-xL siRNA knockdown in HCT116 parent cell line (low Bcl-xL expression)): no sensitization effect; IC50 ([5]; HCT-116, read-out: IC50 value): 340 nM; IC50 ([19]; read-out: IC50 value): 6000 nM; IC50 ([19]; read-out: IC50 value after knockdown of Bcl-xL): 900 nM; IC50 ([20]; 13 sensitive primary tumor samples): ≤ 4420 nM; IC50 ([20]; 14 resistant primary tumor samples): ≤ 95000 nM; up-regulation of CYP1A1 [21]: not detected; inhibition of VEGFR2 [22]: inhibits; inhibition of Flt-3 [23]: inhibits
O=C(O)c1ccc(Nc2ncc3c(n2)-c2ccc(Cl)cc2C(c2c(F)cccc2F)=NC3)cc1 [MLN8054, 4-[[9-chloro-7-(2,6-difluorophenyl)-5H-pyrimido[5,4-d][2]benzazepin-2-yl]amino]benzoic acid] | 190 | 170 | 31000 | 163 | 15000 | 79 | 16000 | 84 | 30000 | 3000 | 18000 | 2000 | 10 | 2000 | 10 | 400 | 2 | 22000 | 18600 | 39000 | fold increase of IC50 vs parent [10]: 176 fold; fold increase of IC50 vs parent [11]: 18 fold; fold increase of IC50 vs parent [12]: 106 fold; fold increase of IC50 vs parent [16]: 129 fold; fold increase of IC50 vs parent [17]: 109 fold; fold increase of IC50 vs parent [18]: 229 fold
Cc1cc(Nc2cc(N3CCN(C)CC3)nc(Sc3ccc(NC(=O)C4CC4)cc3)n2)n[nH]1 [VX-680, N-[4-[4-[4-methylpiperazin-1-yl)-6-[(5-methyl-1H-pyrazol-3-yl)amino]pyrimidin-2-yl]sulfanylphenyl]cyclopropanecarboxamide] | 30 | 100 | 1900 | 63 | 2000 | 67 | 1000 | 33 | 4000 | 2000 | 2400 | 2600 | 87 | 700 | 23 | 90 | 3 | 800 | 1500 | 3000 | fold increase of IC50 vs parent [10]: 40 fold; fold increase of IC50 vs parent [11]: 20 fold; fold increase of IC50 vs parent [12]: 24 fold; fold increase of IC50 vs parent [16]: 8 fold; fold increase of IC50 vs parent [17]: 15 fold; fold increase of IC50 vs parent [18]: 13 fold
